Data taken from the supplement of paper PMC10307832.

Key:
Test in all cases: relative viability (nuclei count vs DMSO), 5 days (fraction); higher = more cells survive
[1] = compound: CCN1C(=O)C2=CC(=C(N=C2N(C1=O)C3CC3)N)C(=O)N
Method in brief: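 Viability here means nuclei in treated wells divided by nuclei in vehicle wells, reported as the median across plates. Only plates with control CV below 25% and at least one doubling passed. Lung cancer cell lines in 1536-well plates were exposed to five √10-spaced library-drug doses for 5 days and counted from 4× Hoechst images in MetaXpress.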

[2] = compound: CCN1C(=O)C2=CC(=C(N=C2N(C1=O)C3CC3)N)C(=O)N + CS(=O)(=O)N1CCN(Cc2cc3nc(-c4cccc5[nH]ncc45)nc(N4CCOCC4)c3s2)CC1 [Pictilisib] (partner 1 µM)
Method in brief: (§1)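 Each reported value is a median over duplicate plates. It expresses relative viability: treated-well nuclei count divided by vehicle-well nuclei count. Lung cancer cell lines in 1536-well plates were dosed by pin tool a day after seeding, alone with one drug or with a fixed anchor-drug dose plus five library-drug doses (not always all listed) in √10 steps, and nuclei were counted after 5 days.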

[3] = compound: CCN1C(=O)C2=CC(=C(N=C2N(C1=O)C3CC3)N)C(=O)N + CC1(C)CCC(c2ccc(Cl)cc2)=C(CN2CCN(c3ccc(C(=O)NS(=O)(=O)c4ccc(N[C@H](CCN5CCOCC5)CSc5ccccc5)c(S(=O)(=O)C(F)(F)F)c4)cc3)CC2)C1 [Navitoclax] (partner 0.5 µM)
Method in brief: as §1

[4] = compound: CCN1C(=O)C2=CC(=C(N=C2N(C1=O)C3CC3)N)C(=O)N + COc1cccc2cc(-c3nc([C@H]4CC[C@H](C(=O)O)CC4)n4ncnc(N)c34)[nH]c12 [OSI-027] (partner 0.5 µM)
Method in brief: as §1

[5] = compound: CCN1C(=O)C2=CC(=C(N=C2N(C1=O)C3CC3)N)C(=O)N + Nc1ncn([C@H]2C[C@H](O)[C@@H](CO)O2)c(=O)n1 [Decitabine] (partner 2 µM)
Method in brief: as §1

Cell Line	relative viability ([1]; 0.253 µM)	relative viability ([1]; 0.8 µM)	relative viability ([1]; 2.53 µM)	relative viability ([1]; 8 µM)	relative viability ([2]; first compound 0.253 µM)	relative viability ([2]; first compound 0.8 µM)	relative viability ([2]; first compound 2.53 µM)	relative viability ([2]; first compound 8 µM)	relative viability ([3]; first compound 0.253 µM)	relative viability ([3]; first compound 0.8 µM)	relative viability ([3]; first compound 2.53 µM)	relative viability ([3]; first compound 8 µM)	relative viability ([4]; first compound 0.253 µM)	relative viability ([4]; first compound 0.8 µM)	relative viability ([4]; first compound 2.53 µM)	relative viability ([4]; first compound 8 µM)	relative viability ([5]; first compound 0.253 µM)	relative viability ([5]; first compound 0.8 µM)	relative viability ([5]; first compound 2.53 µM)	relative viability ([5]; first compound 8 µM)
NCI-H23	0.86	0.96	0.977	0.984	0.453	0.447	0.473	0.487	0.772	0.924	0.659	0.769	0.494	0.64	0.587	0.583	0.315	0.305	0.289	0.32
NCI-H322M	0.959	0.929	0.984	0.996	0.452	0.504	0.486	0.488	1.06	1.12	1.14	1.13	0.498	0.498	0.512	0.549	0.697	0.728	0.673	0.719
NCI-H441	1.1	1.04	0.965	1.03	0.561	0.48	0.462	0.576	0.768	0.482	0.64	0.649	0.686	0.746	0.703	0.583	0.305	0.244	0.265	0.258
NCI-H460	0.976	0.989	0.967	0.972	0.372	0.339	0.461	0.341	1.17	1.08	1.07	1.14	0.586	0.599	0.577	0.547	0.454	0.462	0.524	0.301
NCI-H520	0.985	1.02	0.972	0.904	0.273	0.302	0.317	0.27	1.04	1.22	1.02	1.41	0.296	0.315	0.346	0.304	0.483	0.48	0.474	0.428
NCI-H596	0.933	0.984	1.06	0.971	0.449	0.36	0.454	0.403	1.07	0.904	0.999	1.17	0.735	0.7	0.843	0.679	–	0.925	0.955	0.951
NCI-H647	1.02	0.896	0.993	0.924	0.424	–	0.432	0.462	1.18	1.25	1.14	1.08	0.598	0.724	0.647	0.591	0.444	0.411	0.458	0.433
NCI-H727	0.98	0.892	0.976	0.828	0.441	0.375	0.428	0.508	0.463	0.51	0.484	0.596	0.59	0.528	0.654	0.723	0.882	0.842	0.802	0.676
NCI-H838	0.99	0.965	0.923	0.96	0.468	0.41	0.437	0.503	1.21	1.19	1.13	1.09	0.404	0.406	0.41	0.374	0.469	0.426	0.411	0.451
NCI-H1355	1	0.998	0.992	0.973	0.324	0.513	0.419	0.505	0.969	0.987	0.861	0.921	0.5	0.464	0.455	0.376	0.325	0.331	0.382	0.339
NCI-H1395	0.935	0.972	1.08	0.921	0.611	0.583	0.636	0.63	1.1	1.34	1.13	1.73	0.62	0.587	0.697	0.593	0.698	0.75	0.707	0.609
NCI-H1437	0.982	0.979	0.969	0.972	0.433	0.416	0.445	0.465	1.12	1.09	1.07	1.12	0.939	0.867	0.919	0.894	0.654	0.578	0.591	0.509
NCI-H1650	0.937	0.932	0.901	0.877	0.501	0.547	0.521	0.589	1.1	1.25	1.1	1.19	0.577	0.444	0.629	0.544	0.351	0.404	0.43	0.401
NCI-H1651	0.929	0.976	0.965	0.948	0.552	0.581	0.461	0.595	0.996	1.27	0.969	1.03	0.643	0.691	0.734	0.606	0.534	0.585	0.582	0.386
NCI-H1666	0.93	0.986	0.959	0.938	0.42	0.377	0.391	0.359	0.991	0.942	0.645	0.867	–	0.838	0.863	0.834	0.615	0.688	0.728	0.68
NCI-H1734	0.9	0.903	0.948	0.943	0.456	0.495	0.44	0.473	0.737	0.813	0.778	0.888	0.734	0.554	0.531	0.596	0.499	0.488	0.502	0.565

Cell Line	relative viability ([1]; 0.253 µM)	relative viability ([1]; 0.8 µM)	relative viability ([1]; 2.53 µM)	relative viability ([1]; 8 µM)	relative viability ([2]; first compound 0.253 µM)	relative viability ([2]; first compound 0.8 µM)	relative viability ([2]; first compound 2.53 µM)	relative viability ([2]; first compound 8 µM)	relative viability ([3]; first compound 0.253 µM)	relative viability ([3]; first compound 0.8 µM)	relative viability ([3]; first compound 2.53 µM)	relative viability ([3]; first compound 8 µM)	relative viability ([4]; first compound 0.253 µM)	relative viability ([4]; first compound 0.8 µM)	relative viability ([4]; first compound 2.53 µM)	relative viability ([4]; first compound 8 µM)	relative viability ([5]; first compound 0.253 µM)	relative viability ([5]; first compound 0.8 µM)	relative viability ([5]; first compound 2.53 µM)	relative viability ([5]; first compound 8 µM)
NCI-H1755	0.984	1.02	1	0.979	0.431	0.405	0.452	0.488	1.03	0.936	0.98	0.938	0.744	0.749	0.703	0.72	0.771	0.743	0.704	0.652
NCI-H1792	0.763	0.786	1.08	0.832	0.312	0.28	0.355	0.3	0.648	0.533	0.834	0.564	0.69	0.696	0.733	0.651	0.652	0.54	0.494	0.576
NCI-H1793	0.808	1.02	0.815	1.12	0.267	0.308	–	0.303	0.701	0.385	–	0.404	–	0.294	0.212	0.239	0.527	0.6	0.531	0.546
NCI-H1915	0.988	1.01	1	0.922	0.953	0.843	0.953	0.904	0.738	0.799	0.752	0.711	0.636	0.638	0.6	0.679	0.243	0.261	0.252	0.249
NCI-H1944	1.01	0.919	0.954	0.827	0.354	0.354	0.342	0.308	1.02	1.04	0.978	1.02	0.4	0.399	0.473	0.378	0.485	0.423	0.393	0.434
NCI-H1975	1.01	0.917	0.957	0.892	0.276	0.293	0.306	0.306	1.31	1.06	1.19	1.02	0.809	0.697	0.604	0.536	0.352	0.401	0.388	0.365
NCI-H1993	0.972	0.83	0.919	0.878	0.706	0.832	0.786	0.758	0.994	0.875	0.797	0.757	0.578	0.558	0.523	0.534	0.677	0.586	0.555	0.701
NCI-H2009	1.02	1	0.946	0.923	0.874	0.803	0.8	0.771	1.15	1.14	1.11	1.08	0.634	0.622	0.619	0.621	0.385	0.409	0.394	0.379
NCI-H2023	0.937	0.901	0.836	0.896	0.229	0.218	0.23	0.26	0.946	1.02	0.955	0.95	0.449	0.365	0.386	0.34	0.214	0.223	0.209	0.215
NCI-H2085	1.01	0.99	0.941	0.966	0.418	0.397	0.444	0.42	1.15	1.1	1.2	0.997	0.728	0.691	0.738	0.684	0.566	0.522	0.563	0.524
NCI-H2087	0.972	1.14	1.05	1.03	0.785	0.788	0.878	0.857	0.94	1.11	0.994	0.941	0.437	0.671	0.636	0.55	0.324	0.251	0.297	0.298
NCI-H2126	1.02	0.989	0.972	0.963	0.509	0.511	0.507	0.474	0.86	0.884	0.736	0.775	0.598	0.541	0.819	0.747	0.552	0.544	0.541	0.622
NCI-H2170	0.983	0.928	1.02	0.925	0.297	0.326	0.295	0.335	0.576	0.544	0.608	0.595	0.278	0.707	0.72	0.664	0.495	0.488	0.462	0.404
NCI-H2347	0.98	1.04	1.08	1	0.475	0.711	0.566	0.782	0.816	0.871	0.801	0.749	0.481	0.344	0.384	0.346	0.722	0.66	0.622	0.643
NCI-H2405	1.09	1.02	1.06	0.982	0.456	0.464	0.424	0.479	1.13	0.882	1.01	1.07	0.664	0.667	0.604	0.616	0.771	–	0.718	0.669
